BindingDB's records for patent US9611261 (Amgen, 2017)
pIC50: −log10 of the molar value.

Biological target: Cathepsin D (Homo sapiens, UniProt P07339)
Assay: In Vitro Enzymatic FRET Assay
Protocol: Recombinant Cat D was expressed in CHO cells. The assay buffer for CathepsinD is 0.05 M citrate pH 3.5, 10% DMSO final, 5 mM CHAPS. […] The assays are effectively started by the addition of different FRET substrates (20 nM for Cat D) and the combination is incubated for one hour. The FRET assay is terminated with by addition of Tris buffer, which raises the pH to neutrality, and the fluorescence is determined. The FRET substrate is a peptide with commercially available fluorophore and quencher, on opposite sides of the BACE cleavage site. […] Proteolytic cleavage of the FRET substrate releases quenching of fluorescence (Cat D excitation 500 nm and emission 580 nm).

Sequence of Cathepsin D (P07339 65-162 limits assumed): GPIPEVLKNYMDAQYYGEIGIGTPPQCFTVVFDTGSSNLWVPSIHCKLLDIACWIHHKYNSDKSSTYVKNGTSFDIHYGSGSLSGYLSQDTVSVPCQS
Sequence of Cathepsin D (P07339 169-412 limits assumed): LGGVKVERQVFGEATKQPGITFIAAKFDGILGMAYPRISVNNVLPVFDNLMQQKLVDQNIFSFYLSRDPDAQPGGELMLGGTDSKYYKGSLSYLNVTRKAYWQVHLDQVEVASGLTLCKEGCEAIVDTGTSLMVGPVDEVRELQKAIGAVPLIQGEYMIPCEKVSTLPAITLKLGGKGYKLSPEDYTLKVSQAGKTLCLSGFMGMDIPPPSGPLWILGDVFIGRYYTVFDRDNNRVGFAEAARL

Row | SMILES | pIC50
1 | NC1=N[C@@](c2cc(NC(=O)c3cnc(CCC#CC4CC4)cn3)ccc2F)(C(F)F)[C@H]2C[C@H]2O1 [US9611261, Example 411] | 3.44
2 | COc1cc(Cl)cnc1C(=O)Nc1ccc(F)c([C@@]2(CF)N=C(N)O[C@@H]3C[C@@H]32)c1 [US9611261, Example 297] | 3.08
